Measurements from patent US11921105B2, “Method for identifying positive allosteric modulators for odorant receptors” (FIRMENICH SA, priority 2017, dated 2024).
Read-outs that look alike come from different tables or passages of the source.

Experiments:
[1] = molecular target: T1, Olfr1440 (Mus musculus, UniProt Q8VFV4); test: Olfr1440 MUSCENONE®-induced activation in the presence of enhancer (control); type: cell-based; details: FIG. 5
T1 construct: expressed in transfected cells
T1 sequence (Q8VFV4 1-315): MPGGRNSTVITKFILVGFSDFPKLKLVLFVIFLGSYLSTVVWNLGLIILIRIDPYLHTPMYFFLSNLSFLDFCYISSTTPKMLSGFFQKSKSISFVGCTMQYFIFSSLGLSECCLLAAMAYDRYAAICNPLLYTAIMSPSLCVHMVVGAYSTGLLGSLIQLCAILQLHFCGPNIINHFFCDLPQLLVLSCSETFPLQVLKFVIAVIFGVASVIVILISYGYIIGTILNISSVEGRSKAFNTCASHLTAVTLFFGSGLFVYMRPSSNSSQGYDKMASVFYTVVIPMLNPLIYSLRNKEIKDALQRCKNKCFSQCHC
Experimental: Furthermore and as a control, a similar experiment was performed on the mouse MUSCENONE® responsive odorant receptor Olfr1440, the ortholog of OR5AN1.

[2] = molecular target: T2, OR5AN1 olfactory receptor (Homo sapiens, UniProt Q8NGI8); test: OR5AN1 dose-response of musk agonist with and without modulator, and of candidate alone (EC50 shift, span); type: cell-based
T2 construct: FLAG (N); Rho (first 20 aa of bovine rhodopsin) (N); expressed in transfected cells
T2 sequence (Q8NGI8 1-311): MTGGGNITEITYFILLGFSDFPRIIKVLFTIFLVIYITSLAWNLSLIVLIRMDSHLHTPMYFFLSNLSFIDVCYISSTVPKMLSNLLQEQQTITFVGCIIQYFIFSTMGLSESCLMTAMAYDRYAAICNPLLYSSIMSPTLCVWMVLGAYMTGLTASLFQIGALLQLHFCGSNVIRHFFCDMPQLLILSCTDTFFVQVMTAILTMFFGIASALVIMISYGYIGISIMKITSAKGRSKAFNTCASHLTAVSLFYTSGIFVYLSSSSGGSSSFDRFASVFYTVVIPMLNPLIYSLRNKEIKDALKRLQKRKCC
Experimental: 15 candidates, marked as “enhancement” in Table 2 were identified. Strikingly, 80% of these putative enhancers (12/15) belonged to the same class of chemicals: unsaturated aliphatic aldehydes. Next, two parallel dose-response experiments to confirm the true enhancement properties of the potential candidates were performed. First, a dose-response of each individual candidate was performed to determine if it was an agonist by itself. Second, a MUSCENONE® dose-response curve in the presence and absence of a 250 μM concentration of the putative modulator was assessed for EC50 shifts.
Dose response curves to MUSCENONE® were obtained in the presence of 250 μM of each compound and compared to a dose-response curve of MUSCENONE® alone. The resulting enhancement was quantified by means of EC50-fold shift (potency increase) and the efficacy span ratio (efficacy increase).
The EC50-fold shift was obtained by […]. The span ratio was obtained by dividing the span of MUSCENONE®+compound by the reference span of MUSCENONE® alone. Specifically, diverse aliphatic α-β mono- or poly-unsaturated molecules have been compared.

[3] = system: human panelists; test: Human MUSCENONE® odor detection threshold (ODT), forced-choice triangle tests with background odor; type: in vivo; details: background compound at 0.1%; 2/3 correct responses
Experimental: Sensitivity of human individuals to MUSCENONE® was evaluated by performing an odor detection threshold (ODT) test. The ODT test consisted of identifying the concentration for which 50%, preferably 66%, of the panelists are able to determine which of three containers contains the target compound MUSCENONE® in a forced-choice triangle tests. Two tests were performed to calculate the ODT in mixtures containing MUSCENONE® plus a perceivable background odor of chemically similar molecules a) the enhancer tridecylenic aldehyde and b) the non-enhancing volatile compound, nonanal.
27 panelists were given a series of triangle tests with increasing concentration of MUSCENONE® in the presence of nonanal at a concentration of 0.1%. Within each triangle test, the three samples contained nonanal at 0.1% and one sample also contained MUSCENONE®. In each triangle test, the panelists were asked to identify the one sample that was different from the other two samples. The ODT was calculated by fitting a non-linear regression model onto the data and calculating the MUSCENONE® concentration at which the proportion of correct responses was equal to 2/3 (66%, the midpoint between chance rate 1/3 and all correct answers 1). […]

[4] = molecular target: T3, OR10J5 (Homo sapiens, UniProt Q8NHC4, R233W); test: OR10J5 LYRAL® dose-response at serial enhancer concentrations, allosteric EC50 shift model; type: cell-based
T3 construct: Lucy (cleavable leucine-rich signal peptide) (N); FLAG (N); Rho (first 20 aa of bovine rhodopsin) (N); expressed in transfected cells
T3 sequence (Q8NHC4 1-309 R233W): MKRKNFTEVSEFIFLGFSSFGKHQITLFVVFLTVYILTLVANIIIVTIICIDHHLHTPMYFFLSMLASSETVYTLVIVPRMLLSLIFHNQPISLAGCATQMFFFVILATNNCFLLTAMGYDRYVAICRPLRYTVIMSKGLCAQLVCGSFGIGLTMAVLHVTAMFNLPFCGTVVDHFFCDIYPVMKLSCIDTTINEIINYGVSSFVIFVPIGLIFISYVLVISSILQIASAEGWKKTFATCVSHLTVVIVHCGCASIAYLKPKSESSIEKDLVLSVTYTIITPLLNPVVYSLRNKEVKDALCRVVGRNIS
Experimental: Functional dose-response experiments were performed to reveal the allosteric nature of the interaction between heliopropanal, 3-(4-methylcyclohex-3-en-1-yl)butanal, melonal and heptanal and OR10J5. The level of enhancement of OR10J5's activation was evaluated at distinct concentrations of each enhancer. Using the same cell-based assay described earlier, dose response curves of OR10J5 to LYRAL® in the presence of serial concentrations of the enhancers spanning from 0 to 600 μM were performed, see FIG. 19. The curves were obtained by applying the simplified Allosteric EC50 shift effect equation (available in Prism7) derived from the ternary complex interaction model. The enhancement levels recorded were not linearly dependent on the concentration of the enhancer, and the following key parameters values for α (the cooperativity factor) and KB (the equilibrium dissociation constant of the enhancer) were obtained from the model for each enhancer: heliopropanal, α=6.3 and KB=10 μM; 3-(4-methylcyclohex-3-en-1-yl)butanal, α=7.5 and KB=15 μM; melonal, α=4.1 and KB=16 μM; and heptanal; α=3.2 and KB=51 μM. α>1 is indicative of positive allosteric modulation.

[5] = molecular target: T4, OR10J5 olfactory receptor (Homo sapiens, UniProt Q8NHC4, R233W); test: Single point binary mixture screen (LYRAL® + test compound) for OR10J5 activity enhancement; type: cell-based; details: LYRAL® 4.6 and test compound 300 μM; numbered by decreasing OR10J5 activity (span)
T4 construct: Lucy (cleavable leucine-rich signal peptide) (N); FLAG (N); Rho (first 20 aa of bovine rhodopsin) (N); expressed in transfected cells
T4 sequence (Q8NHC4 1-309 R233W): T3 sequence (Q8NHC4 1-309 R233W)
Description: The Lucy-Flag-Rho-tagged receptor is co-transfected with the olfactory canonical G-protein Golf and exposed to a binary mixture of a single concentration of a floral muguet compound and a test compound.
A dose response curve showing the activation of OR10J5 in response to the floral muguet compound […], 4-(4-hydroxy-4-methylpentyl)cyclohex-3-ene-1-carbaldehyde or a mixture thereof (sold under the tradename LYRAL®, hereinafter referred to as “LYRAL®”) is shown in FIG. 15. Using a cell-based assay, OR10J5 activity was tested in a HEK293T cell line wherein the endogenous chaperone RTP1 gene has been activated and the odorant receptor chaperone was expressed according to the methods disclosed in International Patent Application Publication No. WO2016/201153 A1. The Flag-Rho-tagged receptor was co-transfected with the olfactory canonical G-protein Golf and was exposed to a binary mixture of a single concentration of LYRAL® and a test compound.
A library of volatile compounds was used to create binary mixtures of each compound with LYRAL® at approximately EC20, a concentration eliciting only approximately 20% of full activity level of OR10J5 by itself. An activation cell-based assay was used for the initial enhancer candidate identification. Single binary mixture-induced receptor activity was detected by measuring the cAMP increase in the cytosol using an HTRF (Homogenous Time-Resolved Fluorescence unit) based kit (CisBio, cAMP dynamic 2 kit, 62AM4PEJ).
800 binary mixtures were created by mixing a LYRAL® stock solution with a stock solution of each test compound to a final concentration 4.6 and 300 μM, respectively. Stock solutions were made of compounds dissolved in pure DMSO. Each mixture was presented to a cell line expressing the OR10J5 olfactory receptor. The final concentration of DMSO in each binary mixture was 0.1%, and had no visible effect on the cells (see FIG. 16).
The resulting activation was then measured and compared to LYRAL® alone (defining the baseline of the enhancement assay). The quality of the HTS process was determined and the window variability and signal reliability were assessed by calculating the Z′ value of each plate. […] These OR10J5 olfactory receptor agonists further confirmed that the dynamic range of the assay window was sufficient (as the responses recorded were well above baseline) and thus likely sensitive enough to detect even low levels of putative enhancement.

[6] = molecular target: T5, OR5AN1 (Homo sapiens, UniProt Q8NGI8); test: OR5AN1 MUSCENONE® dose-response at serial enhancer concentrations, allosteric EC50 shift model; type: cell-based; details: enhancer 0 to 1 mM; for Kb: read-out: KB (equilibrium dissociation constant)
T5 construct: FLAG (N); Rho (first 20 aa of bovine rhodopsin) (N); expressed in transfected cells
T5 sequence (Q8NGI8 1-311): T2 sequence (Q8NGI8 1-311)
Experimental: The level of enhancement of OR5AN1's activation was evaluated at distinct concentrations of the enhancer. […] The curves were obtained by applying the simplified Allosteric EC50 shift effect equation (available in Prism5, v. 5.02) derived from the ternary complex interaction model. The enhancement levels recorded were not linearly dependent on the concentration of the enhancer, and the following key parameters values for a (the cooperativity factor) and KB (the equilibrium dissociation constant of TDA) obtained from the model: α=15.7 and KB=259 μM. α>1 is indicative of positive allosteric modulation.

[7] = molecular target: T3, OR10J5; test: OR10J5 (+−)-2,5-dimethyl-2-indanmethanol dose-response with test compound; type: cell-based
Experimental: OR10J5 activity enhancement was tested with an additional agonist and with one of the test compounds and conditions described in the Examples above. Dose response curves to (+−)-2,5-dimethyl-2-indanmethanol was obtained in the presence of a steady concentration of the test compound and compared to a dose-response curve of the agonist alone. The resulting enhancement was quantified by means of EC50-fold shift (potency increase) and the efficacy span ratio (efficacy increase) as described above.

[8] = LYRAL®, enhancer 0 to 600 μM, read-out: KB (equilibrium dissociation constant of the enhancer)

## CCCCCCCCCC/C=C/C=O [TDA, tridecylenic aldehyde]
[1]
  enhancement of Olfr1440 MUSCENONE®-induced activity: did not enhance
[2]; compound alone
  activation of OR5AN1 by the compound by itself: did not activate
[2]; compound alone, above approximately 100 μM
  activation as % of the MUSCENONE® activation window: less than 8%
[2]; enhancer at 250 μM
  maximal activation level (span) of MUSCENONE®: increased span
[3]
  MUSCENONE® ODT value when mixed with the compound: 0.09%

## CC1=CC[C@H](C(C)CC=O)CC1 (stereo partly drawn) [3-(4-methylcyclohex-3-en-1-yl)butanal]
[4]; LYRAL®, enhancer 0 to 600 μM
  α (cooperativity factor): 7.5
[4]; [8]
  Kb: 15 µM

## CCCCCCCCC=O [Hit 33]
[5]
  Hit Type: Enhancement

## C[C@@H]1CC[C@H]2[C@H](C)C(=O)O[C@@H]2C1 [Hit 42]
[5]
  Hit Type: Enhancement

## Cc1ccc(CC(C)C=O)cc1 (stereo not drawn) [Hit 36]
[5]
  Hit Type: Enhancement

## CCCCCC/C=C/C=O [Nonylenic aldehyde]
[6]
  α (cooperativity factor): 28.8
  Kb: 96 µM

## COC(C)(C)CCCC(C)C=O (stereo not drawn) [Hit 43]
[5]
  Hit Type: Enhancement

## CCCCCCCC=CC=O [Hit 2-decenal, 2-decenal]
[6]
  α (cooperativity factor): 37.3
  Kb: 264 µM

## CC(C)=CCCC(C)C=O (stereo not drawn) [melonal]
[4]; LYRAL®, enhancer 0 to 600 μM
  α (cooperativity factor): 4.1
[4]; [8]
  Kb: 16 µM

## CCCCCCC=O [Heptanal]
[4]; LYRAL®, enhancer 0 to 600 μM
  α (cooperativity factor): 3.2
[4]; [8]
  Kb: 51 µM

## C=CC(C)CCCC(C)(C)O (stereo not drawn) [Hit 34]
[5]
  Hit Type: Agonist

## C[C@@H](CC=O)CCCC(C)(C)O [Hit 25]
[5]
  Hit Type: Agonist

## CC1=CC(C)C(C=O)C(C)C1 (stereo not drawn) [Hit 39]
[5]
  Hit Type: Enhancement

## CCc1ccc(C=O)cc1 [Hit 41]
[5]
  Hit Type: Enhancement

## CC(C)=CCCC(C)C=O (stereo not drawn) [Hit 27]
[5]
  Hit Type: Enhancement

## CC/C=C\CCCCC=O [Hit 23]
[5]
  Hit Type: Enhancement

## CCCCCC=O [Hit 24]
[5]
  Hit Type: Enhancement

## Cc1ccc2c(c1)CC(C)(CO)C2 (racemic) [(+−)-2,5-dimethyl-2-indanmethanol, reference compound]
[7]
  agonist type on OR10J5: partial agonist

## C=CCCCCCCCCC(=O)O [undecenoic acid]
[2]; 250 μM of each compound
  enhancement of OR5AN1 MUSCENONE® response (SAR): absence of enhancement

## CC(C=O)Cc1ccc2c(c1)OCO2 (stereo not drawn) [heliopropanal]
[4]
  Kb: 10 µM
[4]; LYRAL®, enhancer 0 to 600 μM
  α (cooperativity factor): 6.3
[7]; within the dynamic range of the dose response
  efficacy increase of (+−)-2,5-dimethyl-2-indanmethanol: 1.7 fold

## CCCCCCCCC=O [nonanal, reference compound]
[3]
  MUSCENONE® ODT value when mixed with the compound: 0.93%

## O=Cc1ccc2c(c1)OCO2 [Hit 37]
[5]
  Hit Type: Enhancement

## CCCCCCC1CCCC(=O)O1 (stereo not drawn) [Hit 35]
[5]
  Hit Type: Enhancement

## CCc1occc(=O)c1O [Hit 40]
[5]
  Hit Type: Enhancement

## O=Cc1ccccc1 [Hit 28]
[5]
  Hit Type: Enhancement

## CC(C)=CCCC1=CCC(C)(C=O)CC1 (stereo not drawn) [Hit 26]
[5]
  Hit Type: Enhancement

## CCCCCC/C=C/C=O [Hit 44]
[5]
  Hit Type: Enhancement

## CCCCC/C=C/C=C/C=O [Hit 32]
[5]
  Hit Type: Enhancement
